Measurements: US12187773B2, “Modified GIP peptide analogues” (Antag Therapeutics ApS, priority 2018, dated 2025)
Where two headings read alike, the source gives them in different places. *1 amine or outer side, *2 acyl side, *3 side chain or, on linkers, in order; H or OH if unused. Where a SMILES comes first, the peptide text is derived from it. Side-chain parts run from the residue outwards. [ ]: non-standard residue; d: D form. The star is where a group is joined. C16 diacid = O=C(O)CCCCCCCCCCCCCCC(=O)*; γGlu = O=C(O)[C@H](CCC(=O)[*:2])N[*:1]; pGlu = O=C1CC[C@@H](C(=O)O)N1; AEEA = NCCOCCOCC(=O)O

Assays:
[1] = target: T1, human GIP receptor (Homo sapiens, UniProt P48546); experiment: cAMP agonism (CisBio cAMP Dynamic 2 HTRF assay); assay type: cell-based; conditions: for Emax: HEK293, read-out: cAMP agonism, % Efficacy, Table 1C, HEK-293 cells
T1 sequence (P48546 22-466): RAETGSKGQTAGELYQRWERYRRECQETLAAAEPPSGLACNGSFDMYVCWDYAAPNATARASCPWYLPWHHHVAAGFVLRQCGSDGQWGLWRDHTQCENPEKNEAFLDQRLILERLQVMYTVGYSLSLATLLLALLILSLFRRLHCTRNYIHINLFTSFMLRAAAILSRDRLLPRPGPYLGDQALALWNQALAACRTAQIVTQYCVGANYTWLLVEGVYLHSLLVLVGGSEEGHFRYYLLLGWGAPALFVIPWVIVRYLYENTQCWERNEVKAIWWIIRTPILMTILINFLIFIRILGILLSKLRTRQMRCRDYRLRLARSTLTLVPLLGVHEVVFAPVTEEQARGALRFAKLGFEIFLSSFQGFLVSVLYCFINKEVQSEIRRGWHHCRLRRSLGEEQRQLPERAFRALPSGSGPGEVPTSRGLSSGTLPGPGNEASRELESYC
Experimental: To test for agonistic properties at the GIP receptor, compounds were diluted and added to cells as described above and incubated for 30 min at 37° C. The resulting increase in intracellular cAMP was determined using the CisBio cAMP Dynamic 2 HTRF Assay Kit as described above.

[2] = target: T1, human GIP receptor; experiment: cAMP accumulation, antagonism (DiscoveRx HitHunter cAMP XS assay); assay type: cell-based; design: host or cells: COS-7 (transient, calcium phosphate; pCMV-Script vector); conditions: for cAMP antagonism, % inhib: % inhibition of Emax
In short: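 Transiently transfected COS-7 cells expressing human GIP receptor, pretreated with 1 mM IBMX in HBS 30 min at 37 °C. Agonism: ligand 30 min at 37 °C; antagonism: 10 min antagonist preincubation, then GIP at 50-80% maximal response for 20 min. cAMP measured by HitHunter cAMP XS.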

[3] = target: T1, human GIP receptor; experiment: cAMP accumulation, agonism (DiscoveRx HitHunter cAMP XS assay); assay type: cell-based; design: host or cells: COS-7 (transient, calcium phosphate; pCMV-Script vector); conditions: for cAMP agonism, Emax: Table 1B, DiscoveRx, COS-7 cells
In short: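 cAMP accumulation measured by HitHunter cAMP XS in COS-7 cells transiently expressing human GIP receptor, after 30 min in HBS with 1 mM IBMX at 37 °C. Antagonists preincubated 10 min before GIP giving 50-80% of maximum, then 20 min more; agonist mode used 30 min ligand exposure.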

[4] = Elimination half-life (T1/2) estimated in Göttingen minipigs; assay type: in vivo
Experimental: 2-3 Göttingen minipigs were subcutaneously administered one of the GIP analogues of the present invention (1-10 nmol/kg, total volume 2-6 mL) and blood samples were collected before and up to 432 hours post subcutaneous administration.) from a central venous catheter. The catheter was flushed with saline and heparin between samples. Blood was collected into cold EDTA tubes, centrifuged and plasma was kept at −20° C. pending analyses.
Concentrations of the acylated GIP(3-30)NH2 or GIP(5-30)NH2 analogues in blood samples from Göttingen minipigs were analyzed by RIA. Analogues' immunoreactivity was determined using antiserum Ab95234, Ab95235, Ab95236, a polyclonal in-house antibody raised in rabbits specific for either the mid region of GIP(1-30)NH2 or amidated C-terminus of GIP(3-30)NH2.
In addition to the hormone analysis, blood concentrations of AT374, 380, 382-385, 392-393 were determined by LC/MS performed by Red Glead Discovery AB, Lund, Sweden. The plasma samples were precipitated by addition of 3 parts ethanol followed by thorough mixing. After centrifugation and dilution of the supernatant, the samples were analyzed by LC-MS/MS and compared with a 9-point calibration curve. The calibration curves were prepared in naïve plasma matrix from Göttingen minipigs.

[5] = target: T1, human GIP receptor; experiment: cAMP antagonism (CisBio cAMP Dynamic 2 HTRF assay); assay type: cell-based; design: pCMV-Script vector
In short: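 Four-parameter fits of cAMP dose-response gave pIC50. cAMP fall was quantified by HTRF competition, ratio 665/620 nm after 60 min at room temperature, against a cAMP standard curve.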

[6] = target: T2, GLP1 receptor (GLP1R) (Homo sapiens, UniProt P43220); experiment: cAMP assay - selectivity, antagonism at GLP1 receptor; assay type: cell-based; conditions: Table 3A; COS-7 cells; agonist GLP1 at 50-80% of maximal cAMP
T2 construct: expressed in transfected cells; host or cells: COS-7 (transient)
T2 sequence (P43220 24-463, species assumed): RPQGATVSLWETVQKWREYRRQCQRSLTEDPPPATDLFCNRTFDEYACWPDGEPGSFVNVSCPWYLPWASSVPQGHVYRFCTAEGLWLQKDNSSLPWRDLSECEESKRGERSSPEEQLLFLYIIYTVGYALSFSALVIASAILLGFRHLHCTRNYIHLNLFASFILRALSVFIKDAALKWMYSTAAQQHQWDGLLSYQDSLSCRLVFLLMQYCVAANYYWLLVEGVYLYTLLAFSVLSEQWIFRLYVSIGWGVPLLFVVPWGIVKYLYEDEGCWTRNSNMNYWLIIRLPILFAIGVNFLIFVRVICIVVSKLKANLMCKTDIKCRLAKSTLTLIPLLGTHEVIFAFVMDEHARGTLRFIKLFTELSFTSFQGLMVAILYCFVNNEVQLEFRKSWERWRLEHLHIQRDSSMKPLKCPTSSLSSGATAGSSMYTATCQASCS
Experimental: Transient transfected COS-7 cells expressing the either of the GLP1 receptor (GLP1R), GLP2 receptor (GLP2R), glucagon receptor (GcgR) or secretin receptor (SCTR) were seeded in white 96-well plates with a density of 3.5*10^4/well. The day after, the cells were washed twice with Hepes buffered saline (HBS) buffer and incubated with HBS and 1 mM 3-isobutyl-1-methylxanthine (IBMX) for 30 min at 37° C. To test for agonistic properties, ligands were added and incubated for 30 min at 37° C. In order to test for antagonistic properties, the cells were preincubated with the antagonists for 10 min prior to the addition the natural agonist for the expressed receptor (GLP1 for GLP1R expressing cells, GLP2 for GLP2R expressing cells, glucagon for the GcgR and secretin for the SCTR) and subsequent incubated for 20 additional min. […] The HitHunter™ cAMP XS assay (DiscoveRx) was carried out according to the manufacturer's instructions.

[7] = Table 1B, DiscoveRx, COS-7 cells
[8] = sc, Table 1B, species not given, unit h, LC/MS in Göttingen minipig plasma for these IDs, subcutaneous 1-10 nmol/kg, read-out: T½ (converted)
[9] = Table 1C, CisBio, HEK-293 cells
[10] = cAMP antagonism, nM (IC50), Table 1C, CisBio, HEK-293 cells, agonist GIP1-42 at EC50
[11] = cAMP antagonism, nM (IC50), Table 1B, DiscoveRx, transiently transfected COS-7 cells
[12] = Göttingen, minipig, plasma, subcutaneous, Example 1, read-out: T1/2 (converted)

CC[C@H](C)[C@H](NC(=O)[C@H](CO)NC(=O)[C@H](Cc1ccc(O)cc1)NC(=O)[C@H](CC(=O)O)NC(=O)[C@H](CO)NC(=O)[C@@H](NC(=O)[C@H](Cc1ccccc1)NC(=O)[C@@H](NC(=O)CNC(=O)[C@@H](N)CCC(=O)O)[C@@H](C)O)[C@@H](C)CC)C(=O)N[C@@H](C)C(=O)N[C@@H](CCSC)C(=O)N[C@@H](CC(=O)O)C(=O)N[C@@H](CCCNC(=N)N)C(=O)N[C@H](C(=O)N[C@@H](CCCCNC(=O)COCCOCCNC(=O)COCCOCCNC(=O)CC[C@H](NC(=O)CCCCCCCCCCCCCCC(=O)O)C(=O)O)C(=O)N[C@@H](CCC(N)=O)C(=O)N[C@@H](CCC(N)=O)C(=O)N[C@@H](CC(=O)O)C(=O)N[C@@H](Cc1ccccc1)C(=O)N[C@H](C(=O)N[C@@H](CC(N)=O)C(=O)N[C@@H](Cc1c[nH]c2ccccc12)C(=O)N[C@@H](CC(C)C)C(=O)N[C@@H](CC(C)C)C(=O)N[C@@H](C)C(=O)N[C@@H](CCC(N)=O)C(=O)N[C@@H](CCCNC(=N)N)C(N)=O)C(C)C)[C@@H](C)CC [AT374] (H-EGTFISDYSIAMDRIK([AEEA-AEEA-γGlu-C16 diacid])QQDFVNWLLAQR-NH2; N-terminus assumed)
Emax [1]: 0%
IC50 ([2]; IC50-value (GIPR antagonism), Examples 1 and 2, values of Tables 1B and 2): 12 nM
cAMP antagonism, % inhib [2, 7]: 100%
cAMP agonism, Emax [3]: No Agonism
half-life [4, 8]: 14 h
cAMP antagonism, % inhib [5, 9]: 86%
IC50 [5, 10]: 17.1 nM

CC[C@H](C)[C@H](NC(=O)[C@H](CO)NC(=O)[C@H](Cc1ccc(O)cc1)NC(=O)[C@H](CC(=O)O)NC(=O)[C@H](CO)NC(=O)[C@@H](NC(=O)[C@H](Cc1ccccc1)NC(=O)[C@@H](NC(=O)CNC(=O)[C@@H]1CCC(=O)N1)[C@@H](C)O)[C@@H](C)CC)C(=O)N[C@@H](C)C(=O)N[C@@H](CCSC)C(=O)N[C@@H](CC(=O)O)C(=O)N[C@@H](CCCNC(=N)N)C(=O)N[C@H](C(=O)N[C@@H](CCCCNC(=O)COCCOCCNC(=O)COCCOCCNC(=O)COCCOCCNC(=O)CC[C@H](NC(=O)CCCCCCCCCCCCCCC(=O)O)C(=O)O)C(=O)N[C@@H](CCC(N)=O)C(=O)N[C@@H](CCC(N)=O)C(=O)N[C@@H](CC(=O)O)C(=O)N[C@@H](Cc1ccccc1)C(=O)N[C@H](C(=O)N[C@@H](CC(N)=O)C(=O)N[C@@H](Cc1c[nH]c2ccccc12)C(=O)N[C@@H](CC(C)C)C(=O)N[C@@H](CC(C)C)C(=O)N[C@@H](C)C(=O)N[C@@H](CCC(N)=O)C(=O)N[C@@H](CCCNC(=N)N)C(N)=O)C(C)C)[C@@H](C)CC [AT380] ([pGlu]GTFISDYSIAMDRIK([AEEA-AEEA-AEEA-γGlu-C16 diacid])QQDFVNWLLAQR-NH2)
Emax [1]: 8%
cAMP antagonism, % inhib [2, 7]: 100%
IC50 [2, 11]: 7 nM
cAMP agonism, Emax [3]: No Agonism
half-life [4, 12]: 20 h
half-life [4, 8]: 20 h
cAMP antagonism, % inhib [5, 9]: 82%
IC50 [5, 10]: 85.8 nM

CC[C@H](C)[C@H](NC(=O)[C@H](CO)NC(=O)[C@H](Cc1ccc(O)cc1)NC(=O)[C@H](CC(=O)O)NC(=O)[C@H](CO)NC(=O)[C@@H](NC(=O)[C@H](Cc1ccccc1)NC(=O)[C@@H](NC(=O)CNC(=O)[C@@H](N)CO)[C@@H](C)O)[C@@H](C)CC)C(=O)N[C@@H](C)C(=O)N[C@@H](CCSC)C(=O)N[C@@H](CC(=O)O)C(=O)N[C@@H](CCCNC(=N)N)C(=O)N[C@H](C(=O)N[C@@H](CCCCNC(=O)CCCCCCCCCCCCCCC(=O)O)C(=O)N[C@@H](CCC(N)=O)C(=O)N[C@@H](CCC(N)=O)C(=O)N[C@@H](CC(=O)O)C(=O)N[C@@H](Cc1ccccc1)C(=O)N[C@H](C(=O)N[C@@H](CC(N)=O)C(=O)N[C@@H](Cc1c[nH]c2ccccc12)C(=O)N[C@@H](CC(C)C)C(=O)N[C@@H](CC(C)C)C(=O)N[C@@H](C)C(=O)N[C@@H](CCC(N)=O)C(=O)N[C@@H](CCCNC(=N)N)C(N)=O)C(C)C)[C@@H](C)CC [AT392] (H-SGTFISDYSIAMDRIK(C16 diacid)QQDFVNWLLAQR-NH2; N-terminus assumed)
cAMP agonism, % Efficacy ([1]; Table 1C, HEK-293 cells): 0%
cAMP antagonism, % inhib [2, 7]: 93%
GIPR, Antagonism, % inhib ([2]; Table 3A/3B, DiscoveRx, COS-7 cells): 93.0%
IC50 [2, 11]: 1 nM
cAMP agonism, Emax [3]: No Agonism
GLP-1R, Antagonism, nM [6]: No antagonism
half-life [4, 12]: 6 h
half-life [4, 8]: 6 h
IC50 ([5]; GIPR, Antagonism, nM, Table 3C, CisBio assay): 68.1 nM
cAMP antagonism, % inhib [5, 9]: 96%
GIPR, Antagonism, % inhib ([5]; Table 3C, CisBio assay): 96%
IC50 [5, 10]: 68.1 nM

CC[C@H](C)[C@H](NC(=O)[C@H](CO)NC(=O)[C@H](Cc1ccc(O)cc1)NC(=O)[C@H](CC(=O)O)NC(=O)[C@H](CO)NC(=O)[C@@H](NC(=O)[C@H](Cc1ccccc1)NC(=O)[C@@H](NC(=O)CNC(=O)[C@@H]1CCCN1)[C@@H](C)O)[C@@H](C)CC)C(=O)N[C@@H](C)C(=O)N[C@@H](CCSC)C(=O)N[C@@H](CC(=O)O)C(=O)N[C@@H](CCCNC(=N)N)C(=O)N[C@H](C(=O)N[C@@H](CCCCNC(=O)COCCOCCNC(=O)COCCOCCNC(=O)CC[C@H](NC(=O)CCCCCCCCCCCCCCC(=O)O)C(=O)O)C(=O)N[C@@H](CCC(N)=O)C(=O)N[C@@H](CCC(N)=O)C(=O)N[C@@H](CC(=O)O)C(=O)N[C@@H](Cc1ccccc1)C(=O)N[C@H](C(=O)N[C@@H](CC(N)=O)C(=O)N[C@@H](Cc1c[nH]c2ccccc12)C(=O)N[C@@H](CC(C)C)C(=O)N[C@@H](CC(C)C)C(=O)N[C@@H](C)C(=O)N[C@@H](CCC(N)=O)C(=O)N[C@@H](CCCNC(=N)N)C(N)=O)C(C)C)[C@@H](C)CC [AT518] (H-PGTFISDYSIAMDRIK([AEEA-AEEA-γGlu-C16 diacid])QQDFVNWLLAQR-NH2; N-terminus assumed)
Emax [1]: 0%
cAMP antagonism, % inhib [2, 7]: 100%
Emax ([3]; COS-7, read-out: cAMP agonism, Emax): 5%
cAMP antagonism, % inhib [5, 9]: 71%
IC50 [5, 10]: 85.8 nM
